Source: PMC8705783, “The Effect of Conjugation with Octaarginine, a Cell-Penetrating Peptide on Antifungal Activity of Imidazoacridinone Derivative” (International Journal of Molecular Sciences, 2021)
≈ marks a conversion by molar mass, not a printed value. Like-named read-outs stand apart in the source and are kept apart here. Blank lines part the entries; values can stand above or below the compound they belong to.

How the values were obtained:
[1] = test system: C. albicans ATCC 10231; experiment: microbe, parasite or virus in culture; type: cell-based; conditions: Candida albicans, ATCC10231; minimal fungicidal concentration that kills 99% of cells; read-out: MFC
Experimental: (§1) To establish the possible mode of action for Compound 1-R8, we have analysed the killing activity and determined minimal fungicidal concentrations (MFCs) (Table 4). Additionally, killing kinetics analysis against pathogenic C. albicans ATCC 10231 was performed (Figure 2).
(§2) Minimum fungicidal concentrations (MFCs) were determined as described previously by spot assay. The MFC was determined as the lowest concentration of the test compound in which no recovery of microorganisms was observed.

[2] = test system: C. glabrata DSM 11226; experiment: microbe, parasite or virus in culture; type: cell-based; conditions: Nakaseomyces glabratus, DSM11226; minimal fungicidal concentration that kills 99% of cells; read-out: MFC
Experimental: as §1, §2

[3] = test system: C. krusei DSM 6128; experiment: microbe, parasite or virus in culture; type: cell-based; conditions: Pichia kudriavzevii, DSM6128; minimal fungicidal concentration that kills 99% of cells; read-out: MFC
Experimental: as §1, §2

[4] = test system: C. parapsilosis DSM 5784; experiment: microbe, parasite or virus in culture; type: cell-based; conditions: Lodderomyces parapsilosis, DSM5784; minimal fungicidal concentration that kills 99% of cells; read-out: MFC
Experimental: as §1, §2

[5] = test system: S. cerevisiae ATCC 9763; experiment: Minimal fungicidal concentration, spot assay; type: cell-based; conditions: Saccharomyces cerevisiae, ATCC9763; minimal fungicidal concentration that kills 99% of cells; read-out: MFC
Experimental: as §1, §2

[6] = test system: C. albicans ATCC 10231; type: cell-based, Candida albicans
Experimental: Killing kinetics analysis was performed as described previously. […] After an appropriate time of incubation, 10 μL was withdrawn and spread on YPG agar plates. The number of colony-forming units (CFUs) was determined after overnight incubation of the plates at 37 °C. The killing kinetics analysis was performed with the GraphPad Prism 8 software (GraphPad Software Inc., San Diego, CA, USA).

[7] = test system: human erythrocytes; type: cell-based; conditions: 30 min
Experimental: Red blood cell concentrates were kindly provided by the Regional Centre for Blood Donation and Blood Treatment in Gdansk. The haemolytic activity determination was carried out by the serial dilution method according to the procedure described earlier. Human erythrocytes were suspended in a solution of saline to obtain a cell density of suspension 2 × l0^7 per mL. Suitable amounts of solutions of compounds diluted in DMSO were added to the cell suspension in tubes, incubated at 37 °C for 30 min, and then centrifuged (1700× g, 5 min, 4 °C). The concentration of haemoglobin in the supernatant after centrifugation of the erythrocytes suspension was determined by measuring the absorbance at wavelength λ = 540 nm (A540 ^sample). Control experiments with the same amount of DMSO were also performed (A540 ^DMSO). The maximum level of haemolysis was obtained after incubation of the cell suspension in the presence of 0.1% Triton X-100 (positive control, A540 ^0.1%Triton X−100). […] The EH50 values for each compound were calculated with GraphPad Prism 8 software. The EH50 is the interpolated concentration of compound, for which the A540 value is exactly 50% of the A540 value measured for the positive control sample. EH (%) was calculated as follows:EH (%) = ((A540 ^sample − A540 ^DMSO)/(A540 ^0.1%Triton X−100 − A540 ^0.9%NaCl)) × 100

[8] = test system: Candida albicans ATCC 10231; experiment: microbe, parasite or virus in culture; conditions: ATCC10231, 24 h, pH 7
[9] = test system: Candida glabrata ATCC 90030; experiment: microbe, parasite or virus in culture; conditions: Nakaseomyces glabratus, ATCC90030, 24 h, pH 7
[10] = test system: Candida krusei ATCC 6258; experiment: microbe, parasite or virus in culture; conditions: Pichia kudriavzevii, ATCC6258, 24 h, pH 7
[11] = test system: Candida parapsilosis ATCC 22019; experiment: microbe, parasite or virus in culture; conditions: Lodderomyces parapsilosis, ATCC22019, 24 h, pH 7
[12] = test system: Saccharomyces cerevisiae ATCC 9763; experiment: microbe, parasite or virus in culture; conditions: ATCC9763, 24 h, pH 7
[13] = test system: HEK-293; experiment: cells; type: cell-based, human; conditions: 72 h
Experimental: (§3) The investigated compounds were screened for their in vitro antiproliferative activity towards a human embryonic kidney cell line (HEK-293) and human liver cancer cell line (HEPG2) using colorimetric MTT.
(§4) The human embryonic kidney cell line (HEK-293) and human liver cancer cell line (HEPG2) were purchased from ATCC (Manassas, Virginia, USA). HEK-293 was cultured in Dulbecco’s Modified Eagle Medium (Corning, NY, USA) and HEPG2 in Minimum Essential Medium Eagle (Corning, NY, USA). For each cell line, the culture medium was supplemented with 10% fetal bovine serum, 2 mM L-glutamine, and antibiotics: penicillin 62.6 µg mL^−1 and streptomycin 40 µg mL^−1. The cells were cultured at the humidified atmosphere of 5% CO2/95% air and routinely tested for Mycoplasma contamination.
(§5) Antiproliferative activity of the compounds was determined by (3-(4,5-dimethylthiazol-2-yl)-2,5-diphenyltetrazolium bromide (MTT, Sigma-Aldrich, St. Louis, MO, USA) assay, which involves the assessment of cell viability by the measurement of the cellular oxidoreductase activity. Briefly, cells were seeded into 96-well culture plates and were allowed to adhere overnight. The investigated compounds were dissolved in DMSO and added to wells (1% final concentration of DMSO) in various concentrations. After 72 h incubation, 20 µL of MTT solution in PBS (4 mg mL^−1) was added to each well, and plates were incubated for an additional 3h in standard culture conditions. After that, the medium was aspirated, and formazan crystals were dissolved in DMSO. The absorbance was determined at 570 nm with a microplate reader (Asys UVM 340 Microplate Reader, Biochrom, Cambridge, UK). All experiments were performed three times independently in triplicate.

[14] = test system: HEPG2; experiment: cells; type: cell-based, human; conditions: 72 h
Experimental: as §3, §4, §5

[15] = test system: Candida albicans ATCC 10231
[16] = test system: Candida glabrata ATCC 90030; conditions: ATCC 90030, 24 h, pH 7
[17] = test system: Candida krusei ATCC 6258; conditions: ATCC 6258, 24 h, pH 7
[18] = test system: Candida parapsilosis ATCC 22019; conditions: ATCC 22019, 24 h, pH 7
[19] = test system: Saccharomyces cerevisiae ATCC 9763; conditions: ATCC 9763, 24 h, pH 7
[20] = test system: Candida albicans B3; conditions: B3, 12 h
[21] = test system: Candida albicans B4; conditions: B4, 12 h
[22] = test system: Candida albicans Gu4; conditions: Gu4, 12 h
[23] = test system: Candida albicans Gu5; conditions: Gu5, 12 h
[24] = test system: Candida albicans F2; conditions: F2, 12 h
[25] = test system: Candida albicans F5; conditions: F5, 12 h
[26] = test system: HeLa cells; conditions: cited from earlier work

Structure (SMILES): C[C@@H]1[C@H](O)[C@@H](C)/C=C/C=C/C=C/C=C/C=C/C=C/C=C/[C@H](O[C@@H]2O[C@H](C)[C@@H](O)[C@H](N)[C@@H]2O)C[C@@H]2O[C@](O)(C[C@@H](O)C[C@@H](O)[C@H](O)CC[C@@H](O)C[C@@H](O)CC(=O)O[C@H]1C)C[C@H](O)[C@H]2C(=O)O [Amphotericin B]
MFC [1]: 2 µg/mL (≈ 2.16 µM) | MFC [2]: 2 µg/mL (≈ 2.16 µM) | MFC [3]: 2 µg/mL (≈ 2.16 µM) | MFC [4]: 2 µg/mL (≈ 2.16 µM) | MFC [5]: 2 µg/mL (≈ 2.16 µM) | mortality of the microbial population [6]: about 60% | EH50 [7]: 3.46 ± 0.15 µg/mL | MIC90 [8]: 0.5 µg/mL (≈ 0.541 µM) | MIC90 [9]: 1 µg/mL (≈ 1.08 µM) | MIC90 [10]: 1 µg/mL (≈ 1.08 µM) | MIC90 [11]: 1 µg/mL (≈ 1.08 µM) | MIC90 [12]: 0.5 µg/mL (≈ 0.541 µM)

IC50 [14]: > 50 µM | MIC90 ([15]; ATCC 10231, 18 h): >64 µg/mL | MIC90 ([15]; ATCC 10231, 24 h, pH 7): >64 µg/mL | MIC90 [16]: >64 µg/mL | MIC90 [17]: >64 µg/mL | MIC90 [18]: 64 µg/mL (≈ 50.5 µM) | MIC90 [19]: 64 µg/mL (≈ 50.5 µM) | MIC90 [20]: >64 µg/mL | MIC90 [21]: >64 µg/mL | MIC90 [22]: >64 µg/mL | MIC90 [23]: >64 µg/mL | MIC90 [24]: >64 µg/mL | MIC90 [25]: >64 µg/mL
Structure (SMILES): N=C(N)NCCC[C@H](NC(=O)[C@H](CCCNC(=N)N)NC(=O)[C@H](CCCNC(=N)N)NC(=O)[C@H](CCCNC(=N)N)NC(=O)[C@H](CCCNC(=N)N)NC(=O)[C@H](CCCNC(=N)N)NC(=O)[C@H](CCCNC(=N)N)NC(=O)[C@@H](N)CCCNC(=N)N)C(=O)O [Compound R8, Octaarginine]
IC50 [13]: > 50 µM | cytotoxicity [26]: no cytotoxicity
